Experimental data published in US20110319409A1, “7-AZA-QUINAZOLINE PDE10 INHIBITORS” (priority 2010, published 2011).

Target: T1, human PDE10A2 (Homo sapiens, UniProt Q9Y233)
T1 construct: made in house; host or cells: AD293 cells, transiently transfected; cytoplasmic fraction of the lysate used as enzyme
Experiment: PDE10 fluorescence polarization (IMAP FP) assay
Assay type: biochemical
Details: human PDE10 enzyme, FAM-labeled cAMP substrate 50 nM
Experimental: The activity of the compounds in accordance with the present invention as PDE10 inhibitors may be readily determined without undue experimentation using a fluorescence polarization (FP) methodology well known in the art (Huang, W., et al., J. Biomol Screen, 2002, 7: 215).
In a typical experiment the PDE10 inhibitory activity of the compounds of the present invention is determined in accordance with the following experimental method. PDE10A2 is amplified from human fetal brain cDNA (Clontech, Mountain View, Calif.) using a forward primer corresponding to nucleotides 56-77 of human PDE10A2 (Accession No. AF127480, Genbank Identifier 4894716), containing a Kozak consensus sequence, and a reverse primer Corresponding to nucleotides 2406-2413 of human PDE10A2 (Accession No. AF127480, Genbank Identifier 4894716). Amplification with Easy-A polymerase (Stratagene, La Jolla, Calif.) is carried out at 95° C. for 2 minutes followed by thirty three cycles of 95° C. for 40 seconds, 55° C. for 30 seconds, and 72° C. for 2 minutes 48 seconds. Final extension is at 72° C. for 7 minutes. The PCR product is TA cloned into pcDNA3.2-TOPO (Invitrogen, Carlsbad, Calif.) according to standard protocol.
AD293 cells with 70-80% confluency are transiently transfected with human PDE10A2/pcDNA3.2-TOPO using Lipofectamine 2000 according to manufacturer specifications (Invitrogen, Carlsbad, Calif.). Cells are harvested 48 hours post-transfection and lysed by sonication (setting 3, 10×5 sec pulses) in a buffer containing 20 mM HEPES, 1 mM EDTA and protease inhibitor cocktail (Roche). Lysate is collected by centrifugation at 75,000×g for 20 minutes. Supernatant containing the cytoplasmic fraction is used for evaluation of PDE10A2 activity.
The fluorescence polarization assay for cyclic nucleotide phosphodiesterases is performed using an IMAP® FP kit supplied by Molecular Devices, Sunnyvale, Calif. (product #R8139). IMAP® technology has been applied previously to phosphodiesterase assays (Huang, W., et al., J. Biomol Screen, 2002, 7: 215). Assays are performed at room temperature in 384-well microtiter plates with an incubation volume of 20.2 μL. Solutions of test compounds are prepared in DMSO and serially diluted with DMSO to yield 8 μL of each of 10 solutions differing by 3-fold in concentration, at 32 serial dilutions per plate. 100% inhibition is determined using a known PDE10 inhibitor, which can be any compound that is present at 5,000 times its Ki value in the assay described as follows, such as papaverine (see Siuciak, et al. Neuropharmacology (2006) 51:386-396; Becker, et al. Behav Brain Res (2008) 186(2):155-60; Threlfell, et al., J Pharmacol Exp Ther (2009) 328(3):785-795), 2-{4-[pyridin-4-yl-1-(2,2,2-trifluoroethyl)-1H-pyrazol-3-yl]phenoxymethyl}quinoline succinic acid or 2-[4-(1-methyl-4-pyridin-4-yl-1H-pyrazol-3-yl)-phenoxymethyl]quinoline succinic acid (see Schmidt, et al. J Pharmacol Exp Ther (2008) 325:681-690; Threlfell, et al., J Pharmacol Exp Ther (2009) 328(3): 785-795). 0% of inhibition is determined by using DMSO (1% final concentrations).
A Labcyte Echo 555 (Labcyte, Sunnyvale, Calif.) is used to dispense 200 nL from each well of the titration plate to the 384 well assay plate. A solution of enzyme (1/1600 dilution from aliquots; sufficient to produce 20% substrate conversion) and a separate solution of FAM-labeled cAMP PDE from Molecular Devices (product # R7506), at a final concentration of 50 nM are made in the assay buffer (10 mM Tris HCl, pH 7.2, 10 mM MgCl2, 0.05% NaN3 0.01% Tween-20, and 1 mM DTT). The enzyme and the substrate are then added to the assay plates in two consecutive additions of 10 μL, and then shaken to mix. The reaction is allowed to proceed at room temperature for 30 minutes. A binding solution is then made from the kit components, comprised of 80% Solution A, 20% Solution B and binding reagent at a volume of 1/600 the total binding solution. […]

T1 sequence (Q9Y233 267-1055): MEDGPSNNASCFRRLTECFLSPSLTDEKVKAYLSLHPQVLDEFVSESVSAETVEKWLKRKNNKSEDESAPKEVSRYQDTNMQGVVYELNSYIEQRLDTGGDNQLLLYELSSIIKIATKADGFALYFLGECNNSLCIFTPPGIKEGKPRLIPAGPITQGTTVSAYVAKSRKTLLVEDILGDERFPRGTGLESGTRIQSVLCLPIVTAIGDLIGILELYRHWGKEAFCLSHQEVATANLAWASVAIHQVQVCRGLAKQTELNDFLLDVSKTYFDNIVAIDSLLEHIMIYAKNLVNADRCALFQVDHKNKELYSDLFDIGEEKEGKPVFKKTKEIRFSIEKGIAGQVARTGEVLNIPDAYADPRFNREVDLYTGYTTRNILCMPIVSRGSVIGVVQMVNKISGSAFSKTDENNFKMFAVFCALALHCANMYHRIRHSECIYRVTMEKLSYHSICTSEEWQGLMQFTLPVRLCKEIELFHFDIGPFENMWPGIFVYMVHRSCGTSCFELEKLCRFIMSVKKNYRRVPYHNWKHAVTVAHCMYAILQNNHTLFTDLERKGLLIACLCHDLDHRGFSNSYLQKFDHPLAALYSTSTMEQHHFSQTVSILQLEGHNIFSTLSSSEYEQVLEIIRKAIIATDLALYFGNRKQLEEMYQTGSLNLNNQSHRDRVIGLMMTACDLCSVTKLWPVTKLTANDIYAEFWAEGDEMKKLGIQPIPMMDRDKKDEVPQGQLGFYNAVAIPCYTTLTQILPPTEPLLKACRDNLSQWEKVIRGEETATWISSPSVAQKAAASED

Cc1ncccc1-c1cccc(-c2nc(NCc3ccncc3)c3ccncc3n2)c1 [1-1, 2-[3-(2-Methylpyridin-3-yl)phenyl]-N-(pyridin-4-ylmethyl)pyrido[3,4-d]pyrimidin-4-amine]
Ki: 1.4 nM

COc1ncccc1-c1cccc(-c2nc(NCCO)c3ccncc3n2)c1 [1-3, 2-({2-[3-(2-Methoxypyridin-3-yl)phenyl]pyrido[3,4-d]pyrimidin-4-yl}amino)ethanol]
Ki: 2.7 nM

COc1ncccc1-c1cccc(-c2nc(NCc3cncnc3)c3ccncc3n2)c1 [1-4, 2-[3-(2-Methoxypyridin-3-yl)phenyl]-N-(pyrimidin-5-ylmethyl)pyrido[3,4-d]pyrimidin-4-amine]
Ki: 0.41 nM

c1cc(-c2nc(NCCN3CCOCC3)c3ccncc3n2)cc(-c2cncc3ccccc23)c1 [1-7]
Ki: 0.55 nM

O=S(=O)(c1cccc2c1CN(c1nc(NCc3ccncc3)c3ccncc3n1)CC2)N1CCOCC1 [1-8, 2-[8-(Morpholin-4-ylsulfonyl)-3,4-dihydroisoquinolin-2(1H)-yl]-N-(pyridin-4-ylmethyl)pyrido[3,4-d]pyrimidin-4-amine]
Ki: 0.23 nM

c1cc(-c2nc(OCc3ccncc3)c3ccncc3n2)cc(-c2ncco2)c1 [1-9, 2-[3-(1,3-Oxazol-2-yl)phenyl]-4-(pyridin-4-ylmethoxy)pyrido[3,4-d]pyrimidine]
Ki: 2.7 nM

COc1ncccc1-c1cncc(-c2nc(NCc3cncnc3)c3ccncc3n2)c1 [1-11, 2-(2′-methoxy-3,3′-bipyridin-5-yl)-N-(pyrimidin-5-ylmethyl)pyrido[3,4-d]pyrimidin-4-amine]
Ki: 0.84 nM

CC(C)OC(=O)c1cccc(-c2nc(NCc3ccncc3)c3ccncc3n2)c1 [1-13, isopropyl 3-{4-[(pyridin-4-ylmethyl)amino]pyrido[3,4-d]pyrimidin-2-yl}benzoate]
Ki: 1.4 nM

COc1ncccc1-c1cccc(-c2nc(NCc3ccncc3)c3ccncc3n2)c1 [A-6, 2-{3-[2-(Methyloxy)pyridin-3-yl]phenyl}-N-(pyridin-4-ylmethyl)pyrido[3, d]pyrimidin-4-amine]
Ki: 0.4 nM

c1ccc2c(c1)CCN(c1nc(NCc3ccncc3)c3ccncc3n1)C2 [B-4, 2-(3,4-Dihydroisoquinolin-2(1H)-yl)-N-(pyridin-4-ylmethyl)pyrido[3,4-d]pyrimidin-4-amine]
Ki: 5.6 nM

C(=C\c1nc(NCc2cncnc2)c2ccncc2n1)/c1ccccc1 [C-2, 2-[(E)-2-Phenylvinyl]-N-(pyrimidin-5-ylmethyl)pyrido[3,4-d]pyrimidin-4-amine]
Ki: 131 nM
